PMC5218480 (PLoS ONE, 2017)

Test system: MV-4-11 cells
Assay: Gene expression microarray analysis (Affymetrix PrimeView) and GSEA
Format: cell-based, human
Design: RFU PODN (11730768_x_at) / Fold change /veh PODN (11730768_x_at) / RFU LINC00158 (11744669_a_at) / Fold change /veh LINC00158 (11744669_a_at) / RFU DUSP10 (11751237_a_at) / Fold change /veh DUSP10 (11751237_a_at) / RFU ID3 (11757404_x_at) / Fold change /veh ID3 (11757404_x_at) / RFU PLEKHG5 (11737974_s_at) / Fold change /veh PLEKHG5 (11737974_s_at) / RFU LRRC4B (11730491_at) / Fold change /veh LRRC4B (11730491_at) / RFU GIMAP4 (11747438_a_at) / Fold change /veh GIMAP4 (11747438_a_at) / RFU KRT8 (11758183_x_at) / Fold change /veh KRT8 (11758183_x_at) / RFU CNN1 (11734310_a_at) / Fold change /veh CNN1 (11734310_a_at) / RFU VPS37D (11726825_at) / Fold change /veh VPS37D (11726825_at) / RFU C10orf10 (11716522_x_at) / Fold change /veh C10orf10 (11716522_x_at) / RFU KIR2DL2 /// KIR2DL4 /// KIR2DL5A /// KIR2DL5B /// KIR2DS1 /// KIR2DS2 /// KIR2DS3 /// KIR2DS4 /// KIR3DL3 /// KIR3DL3 /// KIR3DS1 (11738374_at) / Fold change /veh KIR2DL2 /// KIR2DL4 /// KIR2DL5A /// KIR2DL5B /// KIR2DS1 /// KIR2DS2 /// KIR2DS3 /// KIR2DS4 /// KIR3DL3 /// KIR3DL3 /// KIR3DS1 (11738374_at) / RFU C1QL1 (11718748_at) / Fold change /veh C1QL1 (11718748_at) / RFU TMPRSS4 (11747572_a_at) / Fold change /veh TMPRSS4 (11747572_a_at) / RFU HAMP (11756126_x_at) / Fold change /veh HAMP (11756126_x_at) / RFU RNFT2 (11725882_a_at) / Fold change /veh RNFT2 (11725882_a_at) / RFU NR4A2 (11747474_a_at) / Fold change /veh NR4A2 (11747474_a_at) / RFU ABCC12 (11746883_a_at) / Fold change /veh ABCC12 (11746883_a_at) / RFU TMEM136 (11760407_x_at) / Fold change /veh TMEM136 (11760407_x_at) / RFU CLDN22 /// WWC2 (11732394_at) / Fold change /veh CLDN22 /// WWC2 (11732394_at) / RFU HLA-DPB1 (11760878_x_at) / Fold change /veh HLA-DPB1 (11760878_x_at) / RFU SPINT1 (11716480_a_at) / Fold change /veh SPINT1 (11716480_a_at) / RFU GAP43 (11754022_s_at) / Fold change /veh GAP43 (11754022_s_at) / RFU A4GNT (11735810_at) / Fold change /veh A4GNT (11735810_at) / RFU PRB3 (11715151_x_at) / Fold change /veh PRB3 (11715151_x_at) / RFU TUBB4B (11761932_at) / Fold change /veh TUBB4B (11761932_at) / RFU CAPN14 (11732068_a_at) / Fold change /veh CAPN14 (11732068_a_at) / RFU TMCC2 (11721928_a_at) / Fold change /veh TMCC2 (11721928_a_at) / RFU IRGQ (11745062_a_at) / Fold change /veh IRGQ (11745062_a_at) / RFU FAM174B (11720279_a_at) / Fold change /veh FAM174B (11720279_a_at) / RFU TMPRSS4 (11748680_a_at) / Fold change /veh TMPRSS4 (11748680_a_at) / RFU FAM212B (11763350_a_at) / Fold change /veh FAM212B (11763350_a_at) / RFU PLEKHG5 (11743358_a_at) / Fold change /veh PLEKHG5 (11743358_a_at) / RFU ZSCAN30 (11745921_a_at) / Fold change /veh ZSCAN30 (11745921_a_at) / RFU CMKLR1 (11741424_a_at) / Fold change /veh CMKLR1 (11741424_a_at) / RFU LOC101060620 /// MAPK8IP1 (11723275_at) / Fold change /veh LOC101060620 /// MAPK8IP1 (11723275_at) / RFU SPTSSB (11747773_x_at) / Fold change /veh SPTSSB (11747773_x_at) / RFU PRSS12 (11739890_at) / Fold change /veh PRSS12 (11739890_at) / RFU BIN1 (11741810_x_at) / Fold change /veh BIN1 (11741810_x_at) / RFU WNT11 (11732464_a_at) / Fold change /veh WNT11 (11732464_a_at) / RFU C10orf10 (11716521_a_at) / Fold change /veh C10orf10 (11716521_a_at) / RFU C5orf56 (11738089_at) / Fold change /veh C5orf56 (11738089_at) / RFU CYB561 (11721691_x_at) / Fold change /veh CYB561 (11721691_x_at) / RFU ANKRD19P (11752326_a_at) / Fold change /veh ANKRD19P (11752326_a_at) / RFU OR2T12 /// OR2T33 /// OR2T8 (11738714_s_at) / Fold change /veh OR2T12 /// OR2T33 /// OR2T8 (11738714_s_at) / RFU VCAN (11748164_a_at) / Fold change /veh VCAN (11748164_a_at) / RFU JSRP1 (11732532_at) / Fold change /veh JSRP1 (11732532_at) / RFU KRTAP10-11 (11738290_x_at) / Fold change /veh KRTAP10-11 (11738290_x_at) / RFU MYO3A (11730013_a_at) / Fold change /veh MYO3A (11730013_a_at) / RFU EBF3 (11725865_a_at) / Fold change /veh EBF3 (11725865_a_at) / RFU CAMK2N1 (11719241_x_at) / Fold change /veh CAMK2N1 (11719241_x_at) / RFU C5orf56 (11738088_a_at) / Fold change /veh C5orf56 (11738088_a_at) / RFU OLFML3 (11715873_a_at) / Fold change /veh OLFML3 (11715873_a_at) / RFU LOC100653217 /// NTM (11731650_a_at) / Fold change /veh LOC100653217 /// NTM (11731650_a_at) / RFU MAPK11 (11762145_a_at) / Fold change /veh MAPK11 (11762145_a_at) / RFU FIZ1 (11724087_x_at) / Fold change /veh FIZ1 (11724087_x_at) / RFU OASL (11726364_x_at) / Fold change /veh OASL (11726364_x_at) / RFU SOX15 (11748057_x_at) / Fold change /veh SOX15 (11748057_x_at) / RFU CD79A (11719716_a_at) / Fold change /veh CD79A (11719716_a_at) / RFU HIST1H1D (11736915_at) / Fold change /veh HIST1H1D (11736915_at) / RFU CASKIN2 (11723855_a_at) / Fold change /veh CASKIN2 (11723855_a_at) / RFU LOC730098 (11760151_x_at) / Fold change /veh LOC730098 (11760151_x_at) / RFU OR4N2 (11742367_at) / Fold change /veh OR4N2 (11742367_at) / RFU PRRT2 (11749266_a_at) / Fold change /veh PRRT2 (11749266_a_at) / RFU SNX32 (11753110_a_at) / Fold change /veh SNX32 (11753110_a_at) / RFU CDHR5 (11726645_a_at) / Fold change /veh CDHR5 (11726645_a_at) / RFU RCAN1 (11760418_a_at) / Fold change /veh RCAN1 (11760418_a_at) / RFU FAM167A (11723789_a_at) / Fold change /veh FAM167A (11723789_a_at) / RFU FAM26E (11764081_at) / Fold change /veh FAM26E (11764081_at) / RFU ISYNA1 (11749810_s_at) / Fold change /veh ISYNA1 (11749810_s_at) / RFU ACY1 (11761880_at) / Fold change /veh ACY1 (11761880_at) / RFU 11764098_at / Fold change /veh 11764098_at / RFU SAMD14 (11745864_x_at) / Fold change /veh SAMD14 (11745864_x_at) / RFU NPB (11741838_a_at) / Fold change /veh NPB (11741838_a_at) / RFU TMPRSS6 (11731388_a_at) / Fold change /veh TMPRSS6 (11731388_a_at) / RFU KRTAP10-2 (11738614_at) / Fold change /veh KRTAP10-2 (11738614_at) / RFU ARHGAP8 /// PRR5-ARHGAP8 (11727945_x_at) / Fold change /veh ARHGAP8 /// PRR5-ARHGAP8 (11727945_x_at) / RFU KRTAP5-7 /// NADSYN1 (11734609_at) / Fold change /veh KRTAP5-7 /// NADSYN1 (11734609_at) / RFU RASL12 (11751679_a_at) / Fold change /veh RASL12 (11751679_a_at) / RFU CDKN2B (11736163_a_at) / Fold change /veh CDKN2B (11736163_a_at) / RFU PRF1 (11729649_at) / Fold change /veh PRF1 (11729649_at) / RFU, ZNF638 /// ZNF638-IT1 / Fold change vs veh, ZNF638 /// ZNF638-IT1 / RFU, PANK3 / Fold change vs veh, PANK3 / RFU, SH3YL1 / Fold change vs veh, SH3YL1 / RFU, ZEB2 / Fold change vs veh, ZEB2 / RFU, NRIP1 / Fold change vs veh, NRIP1 / RFU, PTTG1IP / Fold change vs veh, PTTG1IP / RFU, CAPN2 / Fold change vs veh, CAPN2 / RFU, MED14 / Fold change vs veh, MED14 / RFU, SNORA58 / Fold change vs veh, SNORA58 / RFU, C1orf63 / Fold change vs veh, C1orf63 / RFU, LRRFIP1 / Fold change vs veh, LRRFIP1 / RFU, NDUFAF7 / Fold change vs veh, NDUFAF7 / RFU, SLC12A2 / Fold change vs veh, SLC12A2 / RFU, IBTK / Fold change vs veh, IBTK / RFU, ESF1 / Fold change vs veh, ESF1 / Fold change vs veh, TMEM50B / RFU, TAOK1 / Fold change vs veh, TAOK1 / RFU, ACBD3 / Fold change vs veh, ACBD3 / RFU, TMA16 / Fold change vs veh, TMA16 / RFU, RWDD3 / Fold change vs veh, RWDD3 / RFU, BCAT1 / Fold change vs veh, BCAT1 / RFU, EDEM3 / Fold change vs veh, EDEM3 / RFU, TMEM33 / Fold change vs veh, TMEM33 / RFU, WDR75 / Fold change vs veh, WDR75 / RFU, AHCTF1 / Fold change vs veh, AHCTF1 / RFU, TFRC / Fold change vs veh, TFRC / RFU, ZDHHC17 / Fold change vs veh, ZDHHC17 / RFU, NOM1 / Fold change vs veh, NOM1 / RFU, ARL8B / Fold change vs veh, ARL8B / RFU, ZBTB11 / Fold change vs veh, ZBTB11 / RFU, TAMM41 / Fold change vs veh, TAMM41 / RFU, KIAA1704 /// LOC100996395 / Fold change vs veh, KIAA1704 /// LOC100996395 / RFU, ING1 / Fold change vs veh, ING1 / RFU, TRMT61B / Fold change vs veh, TRMT61B / RFU, FUBP3 / Fold change vs veh, FUBP3 / RFU, TP53 / Fold change vs veh, TP53 / RFU, TNKS2 / Fold change vs veh, TNKS2 / RFU, ZFP14 / Fold change vs veh, ZFP14 / RFU, ACTR2 / Fold change vs veh, ACTR2 / RFU, PPP3R1 / Fold change vs veh, PPP3R1 / RFU, PIK3R1 / Fold change vs veh, PIK3R1 / RFU, HNRNPA1 / Fold change vs veh, HNRNPA1 / RFU, RNF170 / Fold change vs veh, RNF170 / RFU, ZNF28 / Fold change vs veh, ZNF28 / RFU, RNGTT / Fold change vs veh, RNGTT / RFU, OGT / Fold change vs veh, OGT / RFU, BRD1 / Fold change vs veh, BRD1 / RFU, MARS / Fold change vs veh, MARS / RFU, ZNF655 / Fold change vs veh, ZNF655 / RFU, FAHD1 / Fold change vs veh, FAHD1 / RFU, BDP1 / Fold change vs veh, BDP1 / RFU, LRRCC1 / Fold change vs veh, LRRCC1 / RFU, ARID1A / Fold change vs veh, ARID1A / RFU, ZNF146 / Fold change vs veh, ZNF146 / RFU, ZNF330 / Fold change vs veh, ZNF330 / RFU, GPN3 / Fold change vs veh, GPN3 / RFU, C9orf123 / Fold change vs veh, C9orf123 / RFU, N4BP2L2 / Fold change vs veh, N4BP2L2 / RFU, ARFIP1 / Fold change vs veh, ARFIP1 / RFU, FAM179B / Fold change vs veh, FAM179B / RFU, BCL10 / Fold change vs veh, BCL10 / RFU, UHRF1BP1L / Fold change vs veh, UHRF1BP1L / RFU, BET1 / Fold change vs veh, BET1 / RFU, CNOT2 / Fold change vs veh, CNOT2 / RFU, ZNF268 / Fold change vs veh, ZNF268 / Fold change vs veh, ZNF507 / RFU, DGCR2 / Fold change vs veh, DGCR2 / RFU, WDSUB1 / Fold change vs veh, WDSUB1 / Fold change vs veh, HSP90B1 /// MIR3652 / RFU, ADSS / Fold change vs veh, ADSS / RFU, GK / Fold change vs veh, GK / RFU, ZNF148 / Fold change vs veh, ZNF148 / RFU, TAF9 / Fold change vs veh, TAF9 / RFU, SLC1A5 / Fold change vs veh, SLC1A5 / RFU, SLMO2 / Fold change vs veh, SLMO2 / RFU, ABCC4 / Fold change vs veh, ABCC4 / RFU, LOC101060439 /// RAP1B / Fold change vs veh, LOC101060439 /// RAP1B / RFU, RFX7 / Fold change vs veh, RFX7 / RFU, GTPBP10 / Fold change vs veh, GTPBP10 / RFU, CNEP1R1 / Fold change vs veh, CNEP1R1 / RFU, BIVM-ERCC5 /// ERCC5 / Fold change vs veh, BIVM-ERCC5 /// ERCC5 / RFU, ILF3 / Fold change vs veh, ILF3 / RFU 11762660_at / Fold change /veh 11762660_at / RFU VCAN (11757783_s_at) / Fold change /veh VCAN (11757783_s_at) / RFU DDX43 (11728927_at) / Fold change /veh DDX43 (11728927_at) / RFU KRT8 (11758188_x_at) / Fold change /veh KRT8 (11758188_x_at) / RFU NKD1 (11759106_at) / Fold change /veh NKD1 (11759106_at) / RFU SRD5A1 (11742802_a_at) / Fold change /veh SRD5A1 (11742802_a_at) / RFU TPSAB1 /// TPSB2 (11721975_s_at) / Fold change /veh TPSAB1 /// TPSB2 (11721975_s_at) / RFU GSTM3 (11746129_a_at) / Fold change /veh GSTM3 (11746129_a_at) / RFU IL23R (11737362_x_at) / Fold change /veh IL23R (11737362_x_at) / RFU TMEM51 (11727254_a_at) / Fold change /veh TMEM51 (11727254_a_at) / RFU PIWIL2 (11732686_x_at) / Fold change /veh PIWIL2 (11732686_x_at) / RFU ORM1 (11744905_x_at) / Fold change /veh ORM1 (11744905_x_at) / RFU CCDC152 (11743942_at) / Fold change /veh CCDC152 (11743942_at) / RFU ECM1 (11717891_a_at) / Fold change /veh ECM1 (11717891_a_at) / RFU IL23R (11748794_a_at) / Fold change /veh IL23R (11748794_a_at) / RFU TNFAIP8L3 (11732012_x_at) / Fold change /veh TNFAIP8L3 (11732012_x_at) / RFU MBOAT4 (11741988_at) / Fold change /veh MBOAT4 (11741988_at) / RFU 11764193_at / Fold change /veh 11764193_at / RFU TMEM53 (11763286_at) / Fold change /veh TMEM53 (11763286_at) / RFU MAGEB2 (11727129_at) / Fold change /veh MAGEB2 (11727129_at) / RFU TMEM200A (11744735_a_at) / Fold change /veh TMEM200A (11744735_a_at) / RFU CCDC152 (11751479_a_at) / Fold change /veh CCDC152 (11751479_a_at) / RFU FAM211A (11726209_a_at) / Fold change /veh FAM211A (11726209_a_at) / RFU RGS16 (11746705_a_at) / Fold change /veh RGS16 (11746705_a_at) / RFU VCAN (11755009_s_at) / Fold change /veh VCAN (11755009_s_at) / RFU RHOB (11743442_s_at) / Fold change /veh RHOB (11743442_s_at) / RFU RGS16 (11720943_a_at) / Fold change /veh RGS16 (11720943_a_at) / RFU RGS16 (11720944_at) / Fold change /veh RGS16 (11720944_at) / RFU, VPS4B / Fold change vs veh, VPS4B / RFU, CREB1 / Fold change vs veh, CREB1 / RFU, DNAJC13 / Fold change vs veh, DNAJC13 / RFU, GNAQ / Fold change vs veh, GNAQ / RFU, CDK5R1 / Fold change vs veh, CDK5R1 / RFU, ZRANB3 / Fold change vs veh, ZRANB3 / RFU, CUL4A / Fold change vs veh, CUL4A / RFU, CCNY / Fold change vs veh, CCNY / RFU, UFL1 / Fold change vs veh, UFL1 / RFU, COG3 / Fold change vs veh, COG3 / RFU, DIAPH2 / Fold change vs veh, DIAPH2 / RFU, SKA2 / Fold change vs veh, SKA2 / RFU, AFF3 / Fold change vs veh, AFF3 / RFU, LMF1 / Fold change vs veh, LMF1 / RFU, IPO11 / Fold change vs veh, IPO11 / RFU, DFFB / Fold change vs veh, DFFB / RFU, FOXP1 / Fold change vs veh, FOXP1 / RFU, CARD8 / Fold change vs veh, CARD8 / RFU, STRN3 / Fold change vs veh, STRN3 / RFU, ADK / Fold change vs veh, ADK / RFU, RASSF2 / Fold change vs veh, RASSF2 / RFU, WIPF1 / Fold change vs veh, WIPF1 / RFU, LARP1B / Fold change vs veh, LARP1B / RFU, RASA1 / Fold change vs veh, RASA1 / RFU, RB1 / Fold change vs veh, RB1 / RFU, PPFIA1 / Fold change vs veh, PPFIA1 / RFU, MAT2A / Fold change vs veh, MAT2A / RFU, CCT5 / Fold change vs veh, CCT5 / RFU, WDR92 / Fold change vs veh, WDR92 / RFU, CUX1 / Fold change vs veh, CUX1 / RFU, TTC7A / Fold change vs veh, TTC7A / RFU, TMEM135 / Fold change vs veh, TMEM135 / RFU, DEPTOR / Fold change vs veh, DEPTOR / RFU, CPM / Fold change vs veh, CPM / RFU, DNAJB6 / Fold change vs veh, DNAJB6 / RFU, CACNA2D3 / Fold change vs veh, CACNA2D3 / RFU, DTX4 / Fold change vs veh, DTX4 / RFU, TFCP2 / Fold change vs veh, TFCP2 / RFU, GMCL1 /// GMCL1P1 / Fold change vs veh, GMCL1 /// GMCL1P1 / RFU, AEBP2 / Fold change vs veh, AEBP2 / RFU, SNHG1 /// SNORD22 /// SNORD25 /// SNORD26 /// SNORD27 /// SNORD28 /// SNORD29 /// SNORD31 / Fold change vs veh, SNHG1 /// SNORD22 /// SNORD25 /// SNORD26 /// SNORD27 /// SNORD28 /// SNORD29 /// SNORD31 / Fold change (Aza/veh), C12orf56 (ProbeSet 11735607_a_at) / Fold change (ACY-1035/veh), C12orf56 (ProbeSet 11735607_a_at) / Fold change (Aza/veh), FGFR1OP (ProbeSet 11751329_s_at) / Fold change (ACY-1035/veh), FGFR1OP (ProbeSet 11751329_s_at) / Fold change (Aza/veh), VPS36 (ProbeSet 11739960_a_at) / Fold change (ACY-1035/veh), VPS36 (ProbeSet 11739960_a_at) / RFU SYPL1 (11715823_x_at) / Fold change /veh SYPL1 (11715823_x_at) / RFU IGFBP7 (11715501_s_at) / Fold change /veh IGFBP7 (11715501_s_at) / RFU REEP3 (11722064_at) / Fold change /veh REEP3 (11722064_at) / RFU IGLL1 (11728026_x_at) / Fold change /veh IGLL1 (11728026_x_at): dose or concentration left out as unconfirmed
Details: ProbeSet 11721559_s_at; LIST B

For Nc1ncn([C@@H]2O[C@H](CO)[C@@H](O)[C@H]2O)c(=O)n1 [azacitidine], the “RFU, ZNF638 /// ZNF638-IT1” value was 347.20 RFU.
